Source: US20260184663A1, “INDENE COMPOUNDS, PHARMACEUTICAL COMPOSITIONS THEREOF, AND THEIR THERAPEUTIC APPLICATIONS” (NucMito Pharmaceuticals co. Ltd., priority 2022, published 2026)

Legend:
Format in all cases: cell-based
[1] = system: MDA-MB-231 (breast cancer); assay: Antiproliferative activity (CCK-8 cell viability), MDA-MB-231; settings: Homo sapiens, 72 h; for inhibition at 3.3 µM: Compound concentration: 3.3 μM; for inhibition at 3.3 µM / inhibition at 10 µM: read-out: Antiproliferative activity in cancerous cells, MDA-MB-231 (inhibition of cell growth); for inhibition at 10 µM: Compound concentration: 10 μM
Outline: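 Growth inhibition of human MDA-MB-231 breast cancer cells was assessed with a Cell Counting Kit-8. Cells cultured in DMEM plus 10% FBS were seeded at 2,000-5,000 cells/well, treated after attachment, and kept 72 h at 37° C. CCK-8 solution (10 μL) was added for 4 h, and absorbance at 450 nm was compared with DMSO-treated controls.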

[2] = system: HepG2 (liver cancer); assay: Antiproliferative activity (CCK-8 cell viability), HepG2; settings: Homo sapiens, 72 h; for inhibition at 3.3 µM: Compound concentration: 3.3 μM; for inhibition at 3.3 µM / inhibition at 10 µM: read-out: Antiproliferative activity in cancerous cells, HepG2 (inhibition of cell growth); for inhibition at 10 µM: Compound concentration: 10 μM; for inhibition at 30 µM: Compound concentration: 30 μM, read-out: Antiproliferative activity in cancerous cells, HepG2
Outline: (§1)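 Growth inhibition graded in bands from percent viability against DMSO vehicle, read as CCK-8 absorbance at 450 nm. Compound tested at 3.3, 10 or 30 μM for 72 h, 37 °C; media contained 10% FBS: DMEM for HepG2/SW480, MEM for HeLa, F-12K for A549.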

[3] = system: A431 (epidermoid carcinoma); assay: Antiproliferative activity (CCK-8 cell viability), A431; settings: Homo sapiens, 72 h, read-out: Antiproliferative activity in cancerous cells, A431 (inhibition of cell growth); for inhibition at 3.3 µM: A-431, Compound concentration: 3.3 μM; for inhibition at 10 µM: A-431, Compound concentration: 10 μM
Outline: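 This growth inhibition assay used A431 cells maintained in Dulbecco's modified Eagle's medium plus 10% fetal bovine serum. Cells were seeded in 96-well plates, treated with compound for 72 h at 37° C., and then given 10 μL CCK-8 solution. After a further 4 h, absorbance was read at 450 nm.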

[4] = system: B16F10 (malignant melanoma); assay: Antiproliferative activity (CCK-8 cell viability), B16F10; settings: Mus musculus, 72 h, read-out: Antiproliferative activity in cancerous cells, B16F10 (inhibition of cell growth); for inhibition at 3.3 µM: B16-F10, Compound concentration: 3.3 μM; for inhibition at 10 µM: B16-F10, Compound concentration: 10 μM
Outline: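 Cell growth inhibition was measured in B16F10 malignant melanoma cells with a Cell Counting Kit-8 viability assay. Cells were maintained in DMEM plus 10% fetal bovine serum, seeded at 2,000-5,000 cells/well in 96-well plates, and treated for 72 h at 37° C. Viability was expressed relative to DMSO-treated vehicle control wells.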

[5] = system: HeLa (cervical cancer); assay: Antiproliferative activity (CCK-8 cell viability), HeLa; settings: Homo sapiens, 72 h; for inhibition at 3.3 µM: Compound concentration: 3.3 μM; for inhibition at 3.3 µM / inhibition at 10 µM: read-out: Antiproliferative activity in cancerous cells, HELA (inhibition of cell growth); for inhibition at 10 µM: Compound concentration: 10 μM; for inhibition at 30 µM: Compound concentration: 30 μM, read-out: Antiproliferative activity in cancerous cells, HELA
Outline: as §1

[6] = system: A549 (lung adenocarcinoma); assay: Antiproliferative activity (CCK-8 cell viability), A549; settings: Homo sapiens, 72 h; for inhibition at 3.3 µM: Compound concentration: 3.3 μM; for inhibition at 3.3 µM / inhibition at 10 µM: read-out: Antiproliferative activity in cancerous cells, A549 (inhibition of cell growth); for inhibition at 10 µM: Compound concentration: 10 μM; for inhibition at 30 µM: Compound concentration: 30 μM, read-out: Antiproliferative activity in cancerous cells, A549
Outline: as §1

[7] = system: SW480 (colon cancer); assay: Antiproliferative activity (CCK-8 cell viability), SW480; settings: Homo sapiens, 72 h, read-out: Antiproliferative activity in cancerous cells, SW480 (inhibition of cell growth); for inhibition at 3.3 µM: Compound concentration: 3.3 μM; for inhibition at 10 µM: Compound concentration: 10 μM
Outline: as §1

[8] = system: alpha-smooth muscle actin (α-SMA); assay: Inhibition of TGF-β induced expression of alpha-smooth muscle actin (α-SMA) in CFSC cells (western blot); settings: compound at 10 μM, TGF-β (10 ng/mL), 24 hours, band intensity vs TGF-β only
Outline: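 Values are percent reduction of α-SMA band intensity relative to cells given TGF-β alone, quantified by Western blot densitometry with β-actin probed. Compound was applied at 10 μM alongside 10 ng/mL TGF-β to serum-free CFSC cultures for 24 h at 37 °C.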

Row | Structure (SMILES) | inhibition at 3.3 µM [1] [%] | inhibition at 10 µM [1] [%] | inhibition at 3.3 µM [2] [%] | inhibition at 10 µM [2] [%] | inhibition at 3.3 µM [3] [%] | inhibition at 10 µM [3] [%] | inhibition at 3.3 µM [4] [%] | inhibition at 10 µM [4] [%] | inhibition at 3.3 µM [5] [%] | inhibition at 10 µM [5] [%] | inhibition at 30 µM [5] [%] | inhibition at 3.3 µM [6] [%] | inhibition at 10 µM [6] [%] | inhibition at 30 µM [6] [%] | inhibition at 3.3 µM [7] [%] | inhibition at 10 µM [7] [%] | inhibition at 10 µM [8] [%] | inhibition at 30 µM [2] [%] | inhibition at 30 µM ([1]; Compound concentration: 30 μM, read-out: Antiproliferative activity in cancerous cells, MDA-MB-231) [%]
1 | CC1=C(CC(=O)O)c2ccc(F)cc2/C1=C\c1ccc(COc2ccccc2)cc1 [B1, (Z)-2-(6-Fluoro-2-methyl-1-(4-(phenoxymethyl)benzylidene)-1H-inden-3-yl)-acetic acid] | < 30 | ≥ 50 | < 30 | ≥ 50 | 30 to 50 | 30 to 50 | ≥ 50 | ≥ 50 | < 30 | < 30 | 30 to 50 | < 30 | < 30 | 30 to 50 | ≥ 50 | ≥ 50 | < 30 |  | 
2 | CC1=C(CC(=O)O)c2cc(F)ccc2/C1=C\c1ccc(COc2ccc(C(F)(F)F)cc2)cc1 [B2, (Z)-2-(5-Fluoro-2-methyl-1-(4-((4-(trifluoromethyl)phenoxy)methyl)-benzylidene)-1H-inden-3-yl)acetic acid] | 30 to 50 | ≥ 50 | 30 to 50 | ≥ 50 | 30 to 50 | ≥ 50 | ≥ 50 | ≥ 50 | < 30 | < 30 | 30 to 50 | ≥ 50 | ≥ 50 |  | ≥ 50 | ≥ 50 | > 80 |  | 
3 | O=C(O)CC1=C/C(=C/c2ccc(COc3ccccc3)cc2)c2ccc(F)cc21 [B3, (Z)-2-(5-Fluoro-1-(4-(phenoxymethyl)benzylidene)-1H-inden-3-yl)acetic acid] | ≥ 50 | ≥ 50 | 30 to 50 | 30 to 50 | < 30 | 30 to 50 | ≥ 50 | ≥ 50 | < 30 | < 30 | < 30 | 30 to 50 | ≥ 50 | 30 to 50 | < 30 | 30 to 50 | > 80 | < 30 | 
4 | CC1=C(CC(=O)O)c2cc(C)ccc2/C1=C\c1ccc(COc2ccccc2)cc1 [B4, (Z)-2-(2,5-Dimethyl-1-(4-(phenoxymethyl)benzylidene)-1H-inden-3-yl)acetic acid] | 30 to 50 | 30 to 50 | 30 to 50 | < 30 | ≥ 50 | < 30 | ≥ 50 | ≥ 50 | < 30 | 30 to 50 | 30 to 50 | 30 to 50 | 30 to 50 | 30 to 50 | < 30 | 30 to 50 | < 30 | < 30 | < 30
